The record followed here is ChEMBL document CHEMBL1201862, “PubChem BioAssay data set” (2004).

Some test systems named below: 786-0; CCRF-CEM; DU-145; KM12; MDA-N; NCI-H226; NCI-H23; NCI/ADR-RES; OVCAR-3; OVCAR-5; RXF 393; SF-268; SF-539; SK-MEL-28; SR; SW-620; U-251; EKVX; HOP-62; IGROV-1.
Common to all, as to assay: NCI-60 cell line screen, 48 h

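Step 1: Grow cells in 96-well plates. Step 2: Expose to compound for 48 hours at 5 concentrations. Step 3: Interpolate endpoints linearly; if unreached, use highest concentration. GI50 is the concentration that inhibits growth by half.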 Calls of active or inactive are those of the source. Rule as the data show it: active = GI50 up to about 1.1 µM and inactive = higher.

As for `COc1ccccc1NC(=O)C(=O)Cc1cnc2ccccc2n1`, the GI50 with 786-0, in the assay with CCRF-CEM, in the assay with DU-145, in the assay with KM12, in the assay with MDA-N and with NCI-H226 was > 100 µM (inactive) throughout. Further, the GI50 with NCI-H23, with NCI/ADR-RES, with OVCAR-3, in the assay on OVCAR-5, in the assay with RXF 393 and in the assay on SF-268 was > 100 µM (inactive) in each case. Also, the GI50 with SF-539, with SK-MEL-28, in the assay with SR, in the assay with SW-620 and in the assay with U-251 was > 100 µM (inactive) throughout.

Turning to `CCCCCCCCCCCCCCCCCCNC(=S)N/C=C1\C(=O)Nc2ccccc2C1=O`, the GI50 is 15.6 µM (inactive) with 786-0; 16 µM (inactive) in the assay with DU-145; 13.7 µM (inactive) in the assay on EKVX; 15.6 µM (inactive) in the assay with HOP-62; 5.83 µM (inactive) in the assay with IGROV-1; 16.1 µM (inactive) in the assay with KM12. The GI50 in the assay on MDA-N is 17.4 µM (inactive); with NCI-H226, 22.9 µM (inactive); in the assay with NCI-H23, 18.9 µM (inactive); with NCI/ADR-RES, 18.4 µM (inactive); with OVCAR-3, 18.5 µM (inactive); with OVCAR-5, 15.4 µM (inactive). Moreover, the GI50 in the assay on RXF 393 was 22.2 µM (inactive); with SF-268 it was 13.6 µM (inactive); in the assay on SF-539, 19.7 µM (inactive); in the assay on SK-MEL-28, 16.5 µM (inactive); with SW-620, 19.5 µM (inactive); in the assay with U-251 it was 19.2 µM (inactive).

As for `C/C(=N/NC(=S)N(Cc1ccccn1)Cc1ccccn1)c1cnccn1`, the GI50 is 0.393 µM (active) in the assay on 786-0; 0.0551 µM (active) in the assay with CCRF-CEM; 0.713 µM (active) with DU-145; 0.189 µM (active) with EKVX; 0.594 µM (active) in the assay with HOP-62; 0.288 µM (active) in the assay on IGROV-1. Also, the GI50 in the assay with KM12 is 0.427 µM (active); in the assay on MDA-N, 2.67 µM (inactive); in the assay on NCI-H226, < 0.0178 µM (active); in the assay with NCI-H23, 0.731 µM (active); in the assay with NCI/ADR-RES, 0.0242 µM (active); with OVCAR-3 it was 0.646 µM (active). The GI50 is 1.26 µM (inactive) in the assay on OVCAR-5; 2.52 µM (inactive) with RXF 393; 0.418 µM (active) in the assay with SF-268; 0.721 µM (active) in the assay on SK-MEL-28; 0.578 µM (active) in the assay on SR; 0.288 µM (active) in the assay with SW-620. The GI50 in the assay with U-251 was 0.129 µM (active).

As for `CN1C(=O)N/C(=C\c2ccc(S(=O)(=O)N/N=C/c3ccccc3)cc2)C1=O`, the GI50 in the assay with 786-0 is 34.8 µM (inactive); in the assay on CCRF-CEM it was 13.3 µM (inactive); in the assay on DU-145, 40 µM (inactive); in the assay with EKVX it was 53.1 µM (inactive); with HOP-62 it was 64.9 µM (inactive); in the assay with IGROV-1, 42.1 µM (inactive). In addition, the GI50 is 15.7 µM (inactive) in the assay with KM12; 32 µM (inactive) in the assay on MDA-N; 74.6 µM (inactive) in the assay on NCI-H226; 23.3 µM (inactive) with NCI-H23; 27.6 µM (inactive) with NCI/ADR-RES; 30.9 µM (inactive) in the assay on OVCAR-3. Further, the GI50 was > 100 µM (inactive) with OVCAR-5; 21.2 µM (inactive) with RXF 393; 26.8 µM (inactive) in the assay on SF-268; 38 µM (inactive) with SK-MEL-28; 10.4 µM (inactive) in the assay with SR; 91.6 µM (inactive) with SW-620. Besides, in the assay with U-251, the GI50 is 40.6 µM (inactive).

Turning to `Cc1cc2nc3[nH]nc(N)c3nc2cc1C`, the GI50 is > 100 µM (inactive) with 786-0; > 100 µM (inactive) in the assay with CCRF-CEM; 36.6 µM (inactive) in the assay on DU-145; 31.4 µM (inactive) in the assay with EKVX; 70 µM (inactive) in the assay on HOP-62; > 100 µM (inactive) in the assay with IGROV-1. The GI50 with KM12 is > 100 µM (inactive); in the assay with MDA-N it was > 100 µM (inactive); with NCI-H226 it was 17.7 µM (inactive); with NCI-H23, > 100 µM (inactive); in the assay with NCI/ADR-RES, > 100 µM (inactive); in the assay on OVCAR-5, > 100 µM (inactive). In addition, the GI50 was 32.3 µM (inactive) in the assay on RXF 393; > 100 µM (inactive) in the assay with SF-268; > 100 µM (inactive) in the assay on SK-MEL-28; > 100 µM (inactive) in the assay with SR; > 100 µM (inactive) with SW-620; > 100 µM (inactive) with U-251.

On to `CC(C)=CC(=O)c1[nH]c2ccccc2c1CC(=O)NCCc1cncn1C`, for which the GI50 with 786-0 was 98.9 µM (inactive); in the assay on CCRF-CEM, 55.2 µM (inactive); in the assay with DU-145, 32.5 µM (inactive); in the assay on EKVX, 25.8 µM (inactive); in the assay on IGROV-1, 47.4 µM (inactive); in the assay on KM12 it was 55.7 µM (inactive). Besides, the GI50 in the assay on MDA-N is 50.7 µM (inactive); in the assay with NCI-H226 it was 88.3 µM (inactive); in the assay on NCI-H23, 51.1 µM (inactive); with NCI/ADR-RES it was > 100 µM (inactive); in the assay with OVCAR-3, 58.1 µM (inactive); with OVCAR-5, > 100 µM (inactive). For the same compound, the GI50 was 29.6 µM (inactive) with RXF 393; 61.8 µM (inactive) in the assay with SF-268; 60.7 µM (inactive) in the assay with SF-539; > 100 µM (inactive) in the assay with SK-MEL-28; 17.2 µM (inactive) in the assay with SR; 85.7 µM (inactive) in the assay with SW-620. In addition, the GI50 in the assay with U-251 is 74.5 µM (inactive).

Consider `CSc1ncc2c(n1)C(C#N)C1Sc3ccccc3N1C2=O` (stereo unspecified), for which the GI50 with 786-0 was 76.9 µM (inactive); in the assay on DU-145, > 100 µM (inactive); with EKVX, > 100 µM (inactive); in the assay on HOP-62 it was 37.5 µM (inactive); in the assay on IGROV-1 it was > 100 µM (inactive); in the assay on KM12, > 100 µM (inactive). The GI50 in the assay on MDA-N is > 100 µM (inactive); with NCI-H226 it was > 100 µM (inactive); in the assay with NCI-H23, 78 µM (inactive); in the assay with NCI/ADR-RES it was > 100 µM (inactive); in the assay on OVCAR-3, > 100 µM (inactive); in the assay with OVCAR-5, > 100 µM (inactive). Also, the GI50 in the assay with RXF 393 is 65 µM (inactive); with SF-268 it was 44.9 µM (inactive); in the assay on SF-539 it was 37.3 µM (inactive); in the assay with SK-MEL-28, > 100 µM (inactive); in the assay with SW-620, > 100 µM (inactive); with U-251 it was 34.5 µM (inactive).

Take `C[C@H](CC[C@@H](O)C(C)(C)O)[C@H]1CC[C@@]2(C)[C@@H]3CC=C4[C@@H](CC[C@H](O)C4(C)C)[C@]3(C)C(=O)C[C@]12C` [BRYODULCOSIGENIN]: the GI50 is 38.3 µM (inactive) in the assay with 786-0; 16.5 µM (inactive) in the assay on CCRF-CEM; > 50 µM (inactive) with DU-145; 21.2 µM (inactive) in the assay with EKVX; > 50 µM (inactive) with HOP-62; > 50 µM (inactive) with IGROV-1. The GI50 was 15.1 µM (inactive) with KM12; 22.9 µM (inactive) with MDA-N; 20.8 µM (inactive) in the assay with NCI-H226; 26.6 µM (inactive) with NCI-H23; 14.7 µM (inactive) in the assay with NCI/ADR-RES; > 50 µM (inactive) with OVCAR-3. The GI50 in the assay on OVCAR-5 is 16.8 µM (inactive); in the assay with SF-539, > 50 µM (inactive); in the assay with SK-MEL-28, 24.2 µM (inactive); with SR, 23.1 µM (inactive); in the assay on SW-620, 22.8 µM (inactive); with U-251 it was 38.5 µM (inactive).

`Nc1c2ccccc2nc2c1ccc1ncccc12`: the GI50 with 786-0 was 9.79 µM (inactive); with CCRF-CEM, 6.78 µM (inactive); in the assay on DU-145, 28.2 µM (inactive); with EKVX, 27.1 µM (inactive); with IGROV-1 it was 12.9 µM (inactive); in the assay on KM12, 15.1 µM (inactive). In addition, the GI50 was 28.1 µM (inactive) in the assay on MDA-N; 13.9 µM (inactive) with NCI-H226; 17.4 µM (inactive) in the assay with NCI-H23; 19.9 µM (inactive) in the assay with NCI/ADR-RES; 24 µM (inactive) in the assay on OVCAR-3; 21.5 µM (inactive) in the assay with OVCAR-5. Also, the GI50 in the assay on RXF 393 is 24.8 µM (inactive); in the assay on SF-539, 14.7 µM (inactive); in the assay on SK-MEL-28, 33.7 µM (inactive); in the assay on SR it was 12.2 µM (inactive); in the assay on SW-620, 11.7 µM (inactive); in the assay with U-251, 39.1 µM (inactive).

`CC(C)[C@H](NC(=O)[C@@H](O)[C@H](N)Cc1ccccc1)C(=O)N[C@@H](Cc1ccccc1)C(=O)O`: the GI50 in the assay with 786-0, in the assay with CCRF-CEM, in the assay with DU-145, in the assay on EKVX, with HOP-62 and with IGROV-1 was > 100 µM (inactive) each time. The GI50 with KM12, in the assay with MDA-N, with NCI-H226, with NCI-H23, in the assay with NCI/ADR-RES and in the assay on OVCAR-3 was > 100 µM (inactive) throughout. The GI50 in the assay with OVCAR-5, in the assay with SF-268, with SK-MEL-28, in the assay on SR, in the assay on SW-620 and in the assay with U-251 was > 100 µM (inactive) in each case.

In the case of `COc1cc(C(=O)N(C)N(C)C)cc(OC)c1OC`, the GI50 in the assay on 786-0, in the assay with CCRF-CEM, with DU-145, in the assay on EKVX, in the assay on HOP-62 and in the assay with IGROV-1 was > 10 µM (inactive) each time. The GI50 in the assay with KM12, in the assay with MDA-N, with NCI-H226, in the assay with NCI-H23, with NCI/ADR-RES and in the assay with OVCAR-3 was > 10 µM (inactive) in each case. The GI50 in the assay on OVCAR-5, with RXF 393, in the assay with SF-268, in the assay with SF-539, in the assay with SK-MEL-28 and in the assay with SW-620 was > 10 µM (inactive) each time. The GI50 in the assay on U-251 is > 10 µM (inactive).
